Among the data in publication PMC11763264, “Antibacterial and Antifungal Activities of Linear and Cyclic Peptides Containing Arginine, Tryptophan, and Diphenylalanine” (Antibiotics, 2025) are MIC values, retold here.

What all share (assay): microbe, parasite or virus in culture
Experiment [1] concerns S. aureus (ATCC 29213). Type of experiment: cell-based, Staphylococcus aureus. The following applies: ATCC 29213, 24 h. As to the method:
(§1) The antibacterial activity of all ten synthesized linear and cyclic peptides was evaluated against MRSA (ATCC BAA-1556), S. aureus (ATCC 29213), E. faecium (ATCC 700221), S. pneumoniae (ATCC 51938), E. faecalis (ATCC 29212), B. subtilis (ATCC-6633), K. pneumoniae (ATCC BAA-1705), P. aeruginosa (ATCC 27883), and E. coli (ATCC 25922). Meropenem and daptomycin were used as positive controls for this study. Certain peptides are marked as “NT” (not tested) against specific bacterial strains based on initial screening data. […] The MIC was determined by micro-broth dilution protocol, where the minimal concentrations were determined to be in wells with no visible bacterial growth.
(§2) All bacterial experiments were carried out in a laminar flow hood (Labconco, Kansas City, MO, USA). The bacterial strains were cultured following the guidelines set by the Clinical Laboratory Standards Institute (CLSI). Antibacterial assays were performed using a standard microtiter dilution method as described in previous studies. The minimum inhibitory concentration (MIC) refers to the lowest peptide concentration that inhibits bacterial growth in wells with no visible bacterial growth. MIC was determined by micro-broth dilution. Bacteria were cultured overnight in 6 mL of Luria Broth (LB). A stock solution of the peptide was prepared in water and DMSO, and a test compound solution with a concentration of 256 µg/mL was made in LB. Meropenem, with a solubility of 8 mg/mL, was prepared as a stock solution at 4 mg/500 µL. An aliquot of the overnight bacteria culture was diluted in normal saline (NS, 1 mL) until achieving a 0.5 McFarland turbidity (1.5 × 10^8 bacterial cell CFU/mL). A 0.5 McFarland compared solution (60 µL) was added to Mueller Hinton Broth (MH) 8940 µL to generate a 1/150 dilution. A 200 µL test compound solution was added to the first well of a 96-well plate, and the remaining wells (2–12) were filled with 100 µL of MH media using a multi-channel pipette from a sterile reservoir. A concentration of […] of the tested peptides was prepared from a stock solution of the samples for testing in Muller−Hinton broth MH media. Peptides stock solution was dissolved in 5% DMSO in water, and the final concentration of DMSO in the first well of assay plate was 2.5% DMSO/H2O and diluted across the assay plate.
(§3) A 100 µL sample from well 1 was pipetted into well 2, and the solution was mixed thoroughly by pipetting up and down. Next, 100 µL was transferred from well 2 to well 3, followed by thorough mixing. This 2-fold serial dilution process continued through well 11, with no additions made to well 12. The final 100 µL from well 11 was discarded. After completing the serial dilution, each well (1–12) contained 100 µL of solution. The bacterial culture in MH media was vortexed and transferred to a sterile reservoir, from which 100 µL was added to each well using a 12-channel pipette. (Note: The dilutions were further diluted upon adding the bacterial solution; for example, the concentration in well 1 started at […] after the addition of the bacterial culture.) The plates were incubated overnight at 37 °C for 24 h. All experiments were performed in triplicate and repeated twice, with controls consisting of bacteria in MH media and positive controls of daptomycin or meropenem.

In experiment [2] the test system is E. faecalis (ATCC 29212). Type of experiment: cell-based, Enterococcus faecalis. The settings on record: ATCC 29212, 24 h. As to the method:
as §1, §2, §3

In experiment [3] the test system is P. aeruginosa (ATCC 27883). Format: cell-based, Pseudomonas aeruginosa. The settings on record: ATCC 27883, 24 h. The method, boiled down: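 Broth microdilution, MH broth, CLSI. 2-fold peptide series from 256 µg/mL […], 2.5% DMSO in first well. Inoculum 0.5 McFarland diluted 1/150. 37 °C, 24 h; MIC = no visible growth.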
For experiment [4], the system named is C. albicans (ATCC 60193). Format: cell-based, Candida albicans. The settings on record: ATCC 60193, 24 h.
The subject of experiment [5] is A. fumigatus (Af-293). Format: cell-based, Aspergillus fumigatus. The settings on record: RPMI 1640 with 2% D-glucose, HEPES, 10^6 cells/mL, 24 and 48 h at 35 °C, no visible growth; triplicates, repeated twice. The method, then: The antifungal activity of all ten synthesized linear and cyclic peptides was evaluated against C. albicans (ATCC 60193), C. parapsilosis (ATCC 22019), and A. fumigatus (AF-293). Fluconazole and amphotericin B were used as positive controls for this study. The MIC was determined at concentrations in wells with no visible fungal growth.
A. fumigatus (Af-293) was cultured on Sabouraud dextrose agar (SDA) (Lot #3431660, Oxoid) for 48–72 h at 35 °C to obtain fresh and mature colonies which reached the proper sporulation then used to prepare the inoculum. The colonies were covered with Phosphate-Buffered Saline (PBS) containing 0.025% Tween-20, scraped from the plate, and carefully collected into a sterile tube. The suspension was centrifuged at 3000 RPM for 5 min after the separation between conidia and hyphae. The supernatant was discarded, and the pellet was resuspended in 5 mL of PBS.
Peptide concentrations of 50, 25, 12.5, 6.25, and 3.1 μg/mL were tested in triplicate. Each well of a 96-well plate was inoculated with the prepared inoculum suspension, which was diluted with RPMI 1640 medium containing L-glutamine, supplemented with 2% D-glucose, and the pH adjusted using HEPES buffer. The plates were incubated for 50 min at 35 °C to achieve a final cell concentration of 10^6 cells/mL. The control wells contained the same inoculum without any compound. The plates were then incubated for 24 and 48 h at 35 °C. Fungal growth was visualized, and the minimum inhibitory concentration (MIC) was determined as the lowest peptide concentration, where no growth was observed.

≈ marks a conversion by molar mass, not a printed value. Non-standard residues stand in square brackets, D forms with d. Residues, ends and D or L forms follow the SMILES beside them. Dip = N[C@H](C(=O)O)C(c1ccccc1)c1ccccc1

Regarding `N=C(N)NCCC[C@@H]1NC(=O)[C@H](C(c2ccccc2)c2ccccc2)NC(=O)[C@H](CCCNC(=N)N)NC(=O)[C@H](C(c2ccccc2)c2ccccc2)NC(=O)[C@H](CCCNC(=N)N)NC(=O)[C@H](C(c2ccccc2)c2ccccc2)NC(=O)[C@H](CCCNC(=N)N)NC(=O)[C@H](C(c2ccccc2)c2ccccc2)NC(=O)[C@H](CCCNC(=N)N)NC(=O)[C@H](C(c2ccccc2)c2ccccc2)NC1=O` [[DipR]5] (cyclo([Dip]R[Dip]R[Dip]R[Dip]R[Dip]R)), the MIC in experiment [1] was determined as 3.1 µM (≈ 5.88 µg/mL); in experiment [2], 0.78 µM (≈ 1.48 µg/mL); in experiment [3] it was 25 µM (≈ 47.4 µg/mL); in experiment [4], 13.1 µM (≈ 24.9 µg/mL); in experiment [5], 1.6 µM (≈ 3.04 µg/mL).
